Assay results from US20230165772A1, “STABILIZED COSMETIC COMPOSITIONS WITH N, N'-DI-ACETYL CYSTINE” (Conopco, Inc., d/b/a UNILEVER, priority 2020, published 2023).
Entries after “also recorded” stand apart in the source; their conditions may differ. Values belong to the compound of their own block, whether it stands above or below them.

What was measured:
[1] = Odor and H2S generation of 4-alkylresorcinol solutions during storage; format: physicochemical; conditions: as stabilizer of 4-substituted resorcinols
Method: (§1) Samples were prepared by dissolving 4-hexylresorcinol (HR) (200 mg) or 4-ethylresorcinol (ER) (200 mg) in DI water:butylene glycol (4:1; 20 ml) to generate a clear colorless homogeneous solution. A portion of each solution (5 ml) was added to a 20 ml scintilation vial containing either niacinamide (B3) (50 mg), NDAC (N,N′-diacetyl-L-cystine) (50 mg), NACys (N-acetyl-L-cysteine) (50 mg), B3 (50 mg)+NDAC (50 mg) or B3 (50 mg)+NACys (50 mg). A hydrogen sulfide (H2S) test strip (Sigma) was placed above the sample solution and the samples sealed. Odor and H2S generation (unchanged test strip white color=no H2S generated; changed test strip brown/black color=H2S generated) were monitored for 2 weeks at R.T. (about 20 to about 22° C.).

[2] = biologically acceptable vehicle, neutral pH range; cited from earlier work
[3] = Color of 4-alkylresorcinol solutions after storage (visual appearance and L*a*b*, Labscan XE); format: physicochemical
Method: as §1
After 2 weeks of storage at R.T. (about 20 to about 22° C.), the color of each solution was assessed visually. Additionally, L*a*b* measurements determined experimentally using a Labscan XE instrument (Hunter Associates Labs Inc., Reston, Va.) and processed with Universal Software (version 4.10). The L* parameter measures darkness and lightness and ranges from black (L*=0) to white (L*=100). The a* parameter measures color content and intensity ranging from green (a*<0) to neutral grey (a*=0) to red (a*>0). The b* parameter also measures color content and intensity ranging from blue (b*<0) to neutral grey (b*=0) to yellow (b*>0).

[4] = HPLC quantitation of 4-hexylresorcinol (HR) remaining after storage; format: physicochemical
Method: The amount of 4-hexylresorcinol (HR) or 4-ethylresorcinol (ER) present in each of the samples used for the color measurements was quantitated after 2 weeks @ R.T. (˜20-22° C.) by high performance liquid chromatography (HPLC). A sample aliquot (100 uL) from each of the color measurement solutions was diluted with DI water:acetonitrile (1:1, 900 uL) to generate test samples (1 ml). An aliquot (10 uL) from each test sample was injected into a Waters 2695 Separations Module, chromatographed and separated on a Restek Pinnacle DB C18 (5 μm, 4.6×150 mm) column operated at 30° C. and the 4-alkylresorcinols monitored using a Waters 2996 Photodiode Array Detector set @ 281 nm. […] Standard control samples of HR at 1×, 5×higher and 5×lower concentrations were prepared fresh and immediately analysed; standard curves were generated within the test sample range and linearity was confirmed.
All samples were analyzed in duplicate and the mean value reported. The amount of 4-alkylresorcinol present for each test sample after 2 weeks was determined by measuring the chromatographic peak area under the curve @ 281 nm for HR and expressed as the percent ratio over the corresponding chromatographic peak area under the curve @ 281 nm for the freshly prepared control sample.

[5] = freshly prepared solution of HR

sulfurous odor generation by the stabilizer (in words) [1]: sulfurous odor generating
Structure (SMILES): CCOC(=O)[C@@H](N)CSSC[C@H](N)C(=O)OCC [DEC, Cystine diethyl ester]

Structure (SMILES): N[C@@H](CSSC[C@H](N)C(=O)O)C(=O)O [cystine]
solubility [2]: extremely low

sulfurous odor generation by the stabilizer (in words) [1]: no sulfurous odor generation | prevention of color formation / discoloration (in words) ([3]; after 2 weeks at R.T., in the presence or absence of B3): effective
Structure (SMILES): CC(=O)N[C@@H](CSSC[C@H](NC(C)=O)C(=O)O)C(=O)O [NDAC, N,N′-diacetyl-L-Cystine]

stabilizing resorcinol derivatives (in words) [4]: effective
Structure (SMILES): CC(=O)N[C@@H](CS)C(=O)O [NACys, N-acetyl-L-cysteine]
sulfurous odor generation by the stabilizer (in words) [1]: generates sulforous odor; also recorded: sulfurous odor generating; also recorded: upleasant sulfurous odor

color of freshly prepared solution [3, 5]: colorless | decomposition of HR upon HPLC analysis [4, 5]: no decomposition
Structure (SMILES): CCCCCCc1ccc(O)cc1O [HR, 4-hexylresorcinol]
